# Source: US4680304A, “Feed compositions containing 2-(α-pyridyl)-Δ^2 -heterocyclic compounds” (SmithKline Beckman Corporation, priority 1985, dated 1987)
# Several values for one entry are separate records, joined by “and”; a condition that tells them apart may be missing. Equal values may be shown once.
# Legend:
# [1] = test system: fermentation in the digestive tract (swine ileal/cecal inoculum); assay: In vitro swine procedure (fistula test; incubation of filtered ileal/cecal inoculum); design: species or system swine (Yorkshire barrow); details: 5 hours at 37°
# [2] = Chick growth study; type: in vivo, broiler chicks
# Method: 512 day old broiler chicks, selected for weight, health and sex, are housed in an environmentally controlled room with temperature at 37.7° and humidity at 40%. Chicks are fed ad libitum. Water is offered ad libitum. A corn or, preferably rye, basal ration is fed during the acclimation period (days 1 and 2). It is, then, mixed with the compound under test or used as a control on days 3-17. Either 8 or 16 chicks are used for each test or control group.
molecule,measurement,setting,value
Cc1nc(-c2ccccn2)no1,GLU (glucose),[1]; 166.67 ppm,113 % of control values
same,LYS (lysine),[1]; 166.67 ppm,110 % of control values
same,Feed/Gain (3-17 day),[2]; 8.5 ppm in feed,99.2 % of Control
same,Weight (17 day),[2]; 8.5 ppm in feed,102.3 % of Control
c1ccc(C2=NCCN2)nc1 [2-(2-Pyridyl)-imidazoline],Feed/Gain (3-17 day),[2]; 50 ppm in feed,93.0 % of Control
same,Weight (17 day),[2]; 50 ppm in feed,106.2 % of Control
NC(=NO)c1ccccn1 [2-Amidoximopyridine],LAC (L-lactic acid),[1]; 166.67 ppm,111 % of control values
same,LYS (lysine),[1]; 166.67 ppm,99 % of control values
same,VFA (total of volatile fatty acids),[1]; 166.67 ppm,98 % of control values
same,Feed/Gain (3-17 day),[2]; 10 ppm in feed,97.0 % of Control and 101.2 % of Control
same,Weight (17 day),[2]; 10 ppm in feed,108.5 % of Control and 99.2 % of Control
same,Feed/Gain (3-17 day),[2]; 50 ppm in feed,97.3 % of Control
same,Weight (17 day),[2]; 50 ppm in feed,103.0 % of Control
"CC1(O)CC(C(N)=O)N=C1c1ncccc1O (stereo not shown) [3,4-dihydro-4-hydroxy-5-(3-hydroxy-2-pyridinyl)-4-methyl-2H-pyrrole-2-carboxamide]",LYS (lysine),[1]; 1.67 ppm,75 % of control values
same,LYS (lysine),[1]; 16.67 ppm,82 % of control values
same,VFA (total of volatile fatty acids),[1]; 16.67 ppm,103 % of control values
same,LYS (lysine),"[1]; entry (a), 166.7 ppm",136 % of control values
same,VFA (total of volatile fatty acids),"[1]; entry (a), 166.7 ppm",26 % of control values
same,LYS (lysine),"[1]; entry (b), 166.7 ppm",142 % of control values
same,VFA (total of volatile fatty acids),"[1]; entry (b), 166.7 ppm",43 % of control values
same,Feed/Gain (3-17 day),[2]; 4.5 ppm in feed,98.4 % of Control
same,Weight (17 day),[2]; 4.5 ppm in feed,101.0 % of Control
same,Feed/Gain (3-17 day),[2]; 25 ppm in feed,92.6 % of Control and 99.9 % of Control
same,Weight (17 day),[2]; 25 ppm in feed,109.4 % of Control and 108.5 % of Control
"CC1(C)NN=C(c2ccccn2)N1 [5,5-Dimethyl-3-(2'-pyridyl)-4,5-dihydro-1H-triazole]",GLU (glucose),[1]; 166.67 ppm,105 % of control values
same,Feed/Gain (3-17 day),[2]; 9 ppm in feed,97.2 % of Control
same,Weight (17 day),[2]; 9 ppm in feed,103.5 % of Control
same,Feed/Gain (3-17 day),[2]; 50 ppm in feed,103.1 % of Control
same,Weight (17 day),[2]; 50 ppm in feed,97.7 % of Control
"COC(=O)C1(C)NN=C(c2ccccn2)N1 (stereo not shown) [Methyl 5-methyl-3-(2'-pyridyl)-4,5-dihydro-1H-triazole-5-carboxylate]",Feed/Gain (3-17 day),[2]; 50 ppm in feed,91.0 % of Control
same,Weight (17 day),[2]; 50 ppm in feed,108.1 % of Control
Virginiamycin [reference compound],GLU (glucose),[1]; 1.67 ppm,131 % of control values
same,LYS (lysine),[1]; 1.67 ppm,134 % of control values
same,VFA (total of volatile fatty acids),[1]; 1.67 ppm,147 % of control values
same,GLU (glucose),[1]; 16.67 ppm,153 % of control values
same,LYS (lysine),[1]; 16.67 ppm,212 % of control values
same,VFA (total of volatile fatty acids),[1]; 16.67 ppm,85 % of control values
same,GLU (glucose),[1]; 166.67 ppm,153 % of control values
same,LYS (lysine),[1]; 166.67 ppm,289 % of control values
same,VFA (total of volatile fatty acids),[1]; 166.67 ppm,39 % of control values
same,Feed/Gain (3-17 day),[2]; 10 ppm in feed (rye),96.5 % of Control
same,Weight (17 day),[2]; 10 ppm in feed (rye),107.1 % of Control
same,Feed/Gain (3-17 day),[2]; 10 ppm in feed,100.4 % of Control
same,Weight (17 day),[2]; 10 ppm in feed,97.7 % of Control
same,Feed/Gain (3-17 day),[2]; 50 ppm in feed,88.5 % of Control
same,Weight (17 day),[2]; 50 ppm in feed,127.8 % of Control
